From PubChem BioAssay (NCI)
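Method: 48-hour compound exposure of cells in 96-well plates, five concentrations, linear interpolation of endpoints. At the GI50, growth is halved. TGI is the concentration that stops growth completely.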

What was measured:
Test in all cases: inhibition of tumour cell growth, NCI panel, 48 h
[1] = system: HT29 colon
[2] = system: UACC-257 melanoma
[3] = system: CAKI-1 renal
[4] = system: SN12C renal
[5] = system: SK-OV-3 ovarian
[6] = system: HCT-15 colon
[7] = system: T-47D breast
[8] = system: K-562 leukemia
[9] = system: UO-31 renal
[10] = system: UACC-62 melanoma

Compound | TGI [1] [µM] | TGI [2] [µM] | TGI [3] [µM] | TGI [4] [µM] | TGI [5] [µM] | TGI [6] [µM] | TGI [7] [µM] | TGI [8] [µM] | TGI [9] [µM] | TGI [10] [µM] | GI50 [1] [µM] | GI50 [2] [µM] | GI50 [3] [µM] | GI50 [4] [µM] | GI50 [5] [µM] | GI50 [6] [µM] | GI50 [7] [µM] | GI50 [8] [µM] | GI50 [9] [µM] | GI50 [10] [µM]
Nc1ccc(Oc2ccc(C34CC5CC(C3)CC(c3ccc(Oc6ccc(N)cc6)cc3)(C5)C4)cc2)cc1 | > 55 | 40.9 | 46.3 | > 55.2 | > 70.1 | > 63.9 | 66.3 | > 100 | > 53.4 | 27.3 |  |  |  |  |  |  |  |  |  | 
O=[N+]([O-])c1ccc2c(c1)nc(Cc1ccc(Cl)cc1)n2C[C@@H]1CCCN2CCCCC12 (some centres not stated) | 28.8 | 31.4 | 31.7 | 27.6 | 43.5 | 37.8 | 36.6 | > 54.1 |  | 28.7 |  |  |  |  |  |  |  |  |  | 
NC(=S)N1N=C(c2ccccc2O)CC1c1ccccc1 (configuration not stated) | 28.9 | 39.1 | > 100 | 45.3 | 49.8 | 39 | 68.5 | > 100 | 53.6 | 29.7 |  |  |  |  |  |  |  |  |  | 
CCCN1C(=O)CSC1=Nc1ccc2cc3ccc(N=C4SCC(=O)N4CCC)cc3nc2c1 | > 100 | > 100 | > 100 | > 100 | > 100 | > 100 | > 100 | > 100 | > 100 | > 100 | 90.6 | > 100 | > 100 | > 100 | 39.4 | > 100 | 18.2 | 52.2 | 41.1 | 85.9
COc1cc([C@@H]2c3cc4c(cc3[C@@H](c3c(O)cc(O)c5c3O[C@H](c3ccc(O)c(O)c3)[C@H](OC(=O)c3cc(O)c(O)c(O)c3)C5)[C@H]3COC(=O)[C@H]23)OCO4)cc(OC)c1OC | > 75.9 | > 100 | > 96.6 | > 100 | > 100 | > 100 | > 100 | > 100 |  | > 100 |  |  |  |  |  |  |  |  |  | 
Cc1cnoc1NS(=O)(=O)c1ccc(Nc2nnc(/C=C/c3c(O)ccc4ccccc34)c(=O)n2N)cc1 | > 100 |  | 88.9 | 95.3 | > 100 | 61.5 | 82 | 82.9 | > 100 | 52.5 |  |  |  |  |  |  |  |  |  | 
COC1CC(CC2CCC(C)C(C(C)C(=O)O)O2)OC2(OC(C)(C3CCC(C)(C4OC(C5OC(O)(CO)C(C)CC5C)CC4C)O3)CC2C)C1C (configuration not stated) | 27.4 | 4.07 | 38.3 | 23.7 | 46.3 | 29.1 | 2.41 | 2.03 | 33.8 | 4.44 |  |  |  |  |  |  |  |  |  | 
